The subject of experiment [1] is CCRF-CEM/VBL100 cells. Conditions: Table 5A, CCRF-CEM/VLB; * collaterally sensitive vs parent.
Experiment [2] has as its system CCRF-CEM cells. The experiment is described as follows: Cytotoxicity / growth inhibition of CCRF-CEM leukemic cells.
Experiment [3] relates to CCRF-CEM cells. The experiment can be described thus: Intracellular accumulation of [3H]vinblastine in CCRF-CEM cells. It counts as cell-based, human. Conditions: 30 μM. As for the experimental part: (§1) *Cells were preloaded with [^3 H]
(§2) times (or without wash) with 100 ml cold medium to remove extracellular
(§3) with or without a reverse prenyl compound or an MDRreversing agent. Cells
(§4) were then separated from radioactive medium by microfuge oillayer method.
(§5) Extracellular space counts carried down # by cells (^3 HInulin space
(§6) were subtracted from the total radioactive counts.

For the next experiment, the system named is CCRF-CEM/VLB-100 cells. The experiment is described as follows: Intracellular accumulation of [3H]vinblastine in CCRF-CEM/VLB-100 cells. It counts as cell-based, human. Conditions: 30 μM. Here is the method:
as §1, §2, §3, §4, §5, §6

A further experiment concerns CCRF-CEM/VM-1 cells. The experiment is described as follows: Cytotoxicity toward VM-26-resistant CCRF-CEM/VM-1 cells (mutated Topo II gene). It counts as cell-based, human.
For experiment [4], the system named is CCRF-CEM/VBL100 cells. The experiment can be described thus: cells. As to conditions: Homo sapiens.
The next experiment concerns DC-3F/ADX cells. The experiment is described as follows: Cytotoxicity toward DC-3F/ADX cells. The class given is cell-based, hamster.
In experiment [5] the test system is DC-3F/ADII cells. As to conditions: IC50 ratio DC-3F/ADII to DC-3F; * collaterally sensitive.
The next experiment has as its system DC-3F hamster lung cells. The experiment is described as follows: Cytotoxicity toward DC-3F hamster lung cells.
Experiment [6] relates to DC-3F/ADII cells. The experiment can be described thus: cells. Conditions: Mesocricetus auratus, DC3F, read-out: IC50 (B).
Setting [7] is: Homo sapiens, Table 5A, single determinations.
[8] abbreviates: Homo sapiens, Table 6, CCRF-CEM.
Setting [9] is: Homo sapiens, read-out: IC50, mean ± spread, Table 5A, CCRF-CEM, mean.
Setting [10] is: Table 5A, single determinations.
[11] abbreviates: Homo sapiens, CCRF-CEM, Table 5A, CCRF-CEM/VM-1, read-out: IC50.
The mark [12] stands for this setting: Table 5A, CCRF-CEM/VLB, * collaterally sensitive vs parent.
[13] abbreviates: read-out: IC50, mean ± spread, Table 5A, CCRF-CEM/VLB, mean.
[14] abbreviates: Homo sapiens, read-out: IC50 of reversing agent, Table 6B, CCRF-CEM.
Where [15] appears, read: Homo sapiens, CCRF-CEM, Table 6B, CCRF-CEM/VM-1, read-out: IC50 of reversing agent.
[16] abbreviates: read-out: IC50 of reversing agent, Table 6B, CCRF-CEM/VBL.

SMILES strings stand for the structures. Where two headings read alike, the source gives them in different places.

As to `C=CC(C)(C)C12CC3C(=O)N(C(C)=O)C(C)C(=O)N3C1N(C(C)=O)c1ccccc12` (stereo not shown) [Imide Di-Ac-DKP Amide 14(D), imide diacetate diketopiperazine], the IC50 in the experiment on CCRF-CEM/VBL100 cells [1] stood at 58 µM; with CCRF-CEM cells [2] (setting [7]), 103 µM; with CCRF-CEM cells [2] (setting [8]) it was 62.5 µM; with CCRF-CEM cells [2] (setting [9]), 83.4 ± 23.4 µM; in the experiment with CCRF-CEM cells [2] (setting [10]), 64 µM; in the experiment with CCRF-CEM/VM-1 cells (Homo sapiens, CCRF-CEM, Table 5A, CCRF-CEM/VM-1, mean, read-out: IC50, mean ± spread), 85.2 ± 4 µM. Further, the IC50 with CCRF-CEM/VM-1 cells (setting [11]) came to 81.4 µM; in the experiment on CCRF-CEM/VM-1 cells (Table 5A, CCRF-CEM/VM-1, read-out: IC50), 89 µM; with CCRF-CEM/VBL100 cells [4] (setting [12]) it was 51.4 µM; in the experiment on CCRF-CEM/VBL100 cells [4] (Table 6, CCRF-CEM/VBL), 37.1 µM; with CCRF-CEM/VBL100 cells [4] (setting [13]) it was 54.7 ± 3.3 µM. Also, the “[3H]vinblastine accumulation” value in the experiment on CCRF-CEM cells [3] (washed) came to 28.36 fmole/10^3 cells; with CCRF-CEM cells [3] (without wash), 34.54 fmole/10^3 cells; in the experiment with CCRF-CEM/VLB-100 cells (washed) it was 4.01 fmole/10^3 cells; with CCRF-CEM/VLB-100 cells (without wash), 15.92 fmole/10^3 cells.

Consider `C=CC(C)(C)C12CC3C(=O)NCC(=O)N3C1N(C=O)c1ccccc12` (stereo not shown) [5N-formyl-8-desMe-DKP], for which the results for the IC50 in the experiment on CCRF-CEM cells [2] (setting [7]) and in the experiment on CCRF-CEM/VBL100 cells [4] (setting [12]) were 200 µM and 372 µM, respectively.

For the molecule `C=CC(C)(C)C12CC3c4nc5ccccc5c(=O)n4CC(=O)N3C1Nc1ccccc12` (stereo not shown) [8-Desmethyl-Ardeemin], the IC50 was determined as 4.7 µM in the experiment with DC-3F/ADX cells (DC3F/ADX, DC-3F/ADX); 14.3 µM with CCRF-CEM cells [2] (setting [14]); 9.58 ± 1.29 µM in the experiment on DC-3F hamster lung cells (Mesocricetus auratus, DC3F, read-out: IC50 (A), mean ± spread, mean of the determinations); 10.9 µM in the experiment with DC-3F hamster lung cells (Mesocricetus auratus, DC3F, read-out: IC50 (A), single determinations); 8.29 µM in the experiment with DC-3F hamster lung cells (read-out: IC50 (A), single determinations); 18.1 µM with CCRF-CEM/VM-1 cells (setting [15]). In addition, the IC50 in the experiment with DC-3F/ADII cells [6] is 26.5 µM; in the experiment on CCRF-CEM/VBL100 cells [4] (setting [16]), 18.8 µM. Also, the “(C)/(A)” value with DC-3F/ADX cells (IC50 ratio DC-3F/ADX to DC-3F, * collaterally sensitive) was 0.49 X. For the same molecule, the “(B)/(A)” value with DC-3F/ADII cells [5] worked out at 3.5 X.

Turning to `C=CC(C)(C)C12CC3C(=O)NC(C)C(=O)N3C1N(C(=O)C(F)(F)F)c1ccccc12` (stereo not shown) [5N-F3 -Ac-DKP 14F(E), 5N-trifluoroacetyl diketopiperazine], the IC50 in the experiment with CCRF-CEM cells [2] (setting [7]) was determined as 32.8 µM; in the experiment on CCRF-CEM cells [2] (setting [9]), 32.2 ± 0.7 µM; with CCRF-CEM cells [2] (setting [14]) it was 32.8 µM; in the experiment with CCRF-CEM cells [2] (setting [10]), 31.5 µM; in the experiment with CCRF-CEM/VM-1 cells (setting [11]) it was 41 µM; in the experiment on CCRF-CEM/VM-1 cells (setting [15]) it was 40.9 µM. In addition, the IC50 came to 24.6 µM in the experiment with CCRF-CEM/VBL100 cells [4] (setting [12]) and 24.8 µM with CCRF-CEM/VBL100 cells [4] (setting [16]). Further, the “[3H]vinblastine accumulation” value in the experiment on CCRF-CEM cells [3] (washed) is reported as 28.75 fmole/10^3 cells; with CCRF-CEM cells [3] (without wash), 33.34 fmole/10^3 cells; with CCRF-CEM/VLB-100 cells (washed) it was 5.77 fmole/10^3 cells; with CCRF-CEM/VLB-100 cells (without wash), 23.34 fmole/10^3 cells.

Turning to `C=CC(C)(C)C12CC3C(=O)NC(C)C(=O)N3C1Nc1ccccc12` (stereo not shown) [Diketopiperazine 14(B), Diketopiperazine], the IC50 with CCRF-CEM cells [2] (setting [7]) turned out to be 143 µM; with CCRF-CEM cells [2] (setting [8]), 148 µM; in the experiment on CCRF-CEM cells [2] (setting [9]), 132 ± 11.5 µM; in the experiment on CCRF-CEM cells [2] (setting [14]), 143 µM; in the experiment on CCRF-CEM cells [2] (Table 5A, single determinations, listed as DKP 14(B)), 120 µM; in the experiment on CCRF-CEM/VM-1 cells (Homo sapiens, CCRF-CEM), 178 µM. Moreover, the IC50 in the experiment with CCRF-CEM/VM-1 cells (Homo sapiens, CCRF-CEM, read-out: IC50 of reversing agent) amounted to 178 µM; in the experiment on CCRF-CEM/VBL100 cells [4] (Table 6, CCRF-CEM/VBL), 147 µM; with CCRF-CEM/VBL100 cells [4] (setting [13]), 94.6 ± 40.8 µM; in the experiment on CCRF-CEM/VBL100 cells [4] (setting [16]), 135 µM. In addition, the “[3H]vinblastine accumulation” value stood at 28.51 fmole/10^3 cells in the experiment on CCRF-CEM cells [3] (washed), 35.84 fmole/10^3 cells with CCRF-CEM cells [3] (without wash), 3.33 fmole/10^3 cells with CCRF-CEM/VLB-100 cells (washed) and 10.81 fmole/10^3 cells in the experiment with CCRF-CEM/VLB-100 cells (without wash).

`C=CC(C)(C)C12CC3C(=O)N(C(=O)OC(C)(C)C)C(C)C(=O)N3C1Nc1ccccc12` (stereo not shown) [Imide-BOC-DKP 14(C), imide-BOC diketopiperazine]: the IC50 stood at 120 µM with CCRF-CEM/VBL100 cells [1]; 88.7 µM in the experiment with CCRF-CEM cells [2] (setting [8]); 204 ± 116 µM in the experiment with CCRF-CEM cells [2] (setting [9]); 205 µM in the experiment with CCRF-CEM/VM-1 cells (setting [11]); 65.4 µM in the experiment with CCRF-CEM/VBL100 cells [4] (setting [12]); 65.4 µM in the experiment with CCRF-CEM/VBL100 cells [4] (Table 6, CCRF-CEM/VBL). Also, the IC50 in the experiment with CCRF-CEM/VBL100 cells [4] (setting [13]) worked out at 92.9 ± 27.3 µM. In addition, the “[3H]vinblastine accumulation” value with CCRF-CEM cells [3] (washed) was 30.29 fmole/10^3 cells; in the experiment on CCRF-CEM cells [3] (without wash), 35.56 fmole/10^3 cells; in the experiment with CCRF-CEM/VLB-100 cells (washed), 6.10 fmole/10^3 cells; in the experiment with CCRF-CEM/VLB-100 cells (without wash), 25.44 fmole/10^3 cells.

Turning to `C=CC(C)(C)C12CC3C(=O)NC(C)C(=O)N3C1N(C(C)=O)c1ccccc12` (stereo not shown) [5N-Ac-DKP 14(E), N-acetyldiketopiperazine], the IC50 with CCRF-CEM cells [2] (setting [8]) came out at 225 µM; in the experiment on CCRF-CEM cells [2] (setting [9]) it was 397 ± 171 µM; in the experiment on CCRF-CEM/VM-1 cells (setting [11]), 32.4 µM; in the experiment with CCRF-CEM/VBL100 cells [4] (Table 6, CCRF-CEM/VBL), 541 µM; with CCRF-CEM/VBL100 cells [4] (setting [13]), 344 ± 197 µM. In addition, the “[3H]vinblastine accumulation” value in the experiment on CCRF-CEM cells [3] (washed) is on record as 29.54 fmole/10^3 cells; in the experiment with CCRF-CEM cells [3] (without wash), 35.08 fmole/10^3 cells; in the experiment with CCRF-CEM/VLB-100 cells (washed) it was 3.59 fmole/10^3 cells; with CCRF-CEM/VLB-100 cells (without wash), 12.88 fmole/10^3 cells.

The record behind these values is patent US6147076A, “Analogues of N-acetylardeemin, method of preparation and uses thereof” (priority 1996, dated 2000).
